Test results as given in PubChem BioAssay (NCI).
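How tested: cells in 96-well plates exposed to compound for 48 hours at five concentrations. At the TGI there is no net growth.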

How the values were obtained:
Assay in all cases: inhibition of tumour cell growth, NCI panel, 48 h
[1] = test system: 786-0 renal
[2] = test system: A498 renal
[3] = test system: A549 NSCLC
[4] = test system: ACHN renal
[5] = test system: BT-549 breast
[6] = test system: CAKI-1 renal
[7] = test system: CCRF-CEM leukemia
[8] = test system: COLO 205 colon
[9] = test system: DU-145 prostate
[10] = test system: EKVX NSCLC
[11] = test system: HCC-2998 colon
[12] = test system: HCT-116 colon
[13] = test system: HCT-15 colon
[14] = test system: HL-60(TB) leukemia
[15] = test system: HOP-62 NSCLC
[16] = test system: HOP-92 NSCLC
[17] = test system: HS 578T breast
[18] = test system: HT29 colon
[19] = test system: IGROV1 ovarian
[20] = test system: K-562 leukemia
[21] = test system: KM12 colon
[22] = test system: LOX IMVI melanoma
[23] = test system: M14 melanoma
[24] = test system: MALME-3M melanoma
[25] = test system: MCF7 breast
[26] = test system: MDA-MB-231 breast
[27] = test system: MDA-MB-435
[28] = test system: MDA-N
[29] = test system: MOLT-4 leukemia
[30] = test system: NCI-H226 lung
[31] = test system: NCI-H23 lung
[32] = test system: NCI-H460 lung
[33] = test system: NCI-H522 lung
[34] = test system: NCI/ADR-RES ovarian
[35] = test system: OVCAR-3 ovarian
[36] = test system: OVCAR-4 ovarian
[37] = test system: OVCAR-5 ovarian
[38] = test system: OVCAR-8 ovarian
[39] = test system: PC-3 prostate
[40] = test system: RPMI-8226 leukemia
[41] = test system: RXF 393 renal
[42] = test system: SF-268 CNS
[43] = test system: SF-539 CNS
[44] = test system: SK-MEL-2 melanoma
[45] = test system: SK-MEL-28 melanoma
[46] = test system: SK-MEL-5 melanoma
[47] = test system: SN12C renal
[48] = test system: SNB-19 CNS
[49] = test system: SR leukemia
[50] = test system: SW-620 colon
[51] = test system: T-47D breast
[52] = test system: TK-10 renal
[53] = test system: U251 CNS
[54] = test system: UACC-257 melanoma
[55] = test system: UO-31 renal
[56] = test system: SF-295 CNS
[57] = test system: SK-OV-3 ovarian
[58] = test system: SNB-75 CNS
[59] = test system: UACC-62 melanoma

In the case of C=C(Br)COc1ccc2c(C)cc(=O)oc2c1, the TGI [1] is reported as > 100 µM, the TGI [2] is reported as > 100 µM and the TGI [3] is reported as > 100 µM. The TGI [4] was > 100 µM, the TGI [5] was > 100 µM and the TGI [6] was > 100 µM. For the same compound, the TGI [7] was > 100 µM, the TGI [8] was 16.7 µM and the TGI [9] was > 100 µM. For the same compound, the TGI [10] was > 100 µM, the TGI [11] was > 100 µM and the TGI [12] was > 100 µM. For the same compound, the TGI [13] was > 100 µM, the TGI [14] was > 100 µM and the TGI [15] was > 100 µM. For the same compound, the TGI [16] was > 100 µM, the TGI [17] was > 100 µM and the TGI [18] was > 100 µM. For the same compound, the TGI [19] was > 100 µM, the TGI [20] was > 100 µM and the TGI [21] was 12.1 µM. For the same compound, the TGI [22] was > 100 µM, the TGI [23] was > 100 µM and the TGI [24] was > 100 µM. For the same compound, the TGI [25] was 19.7 µM, the TGI [26] was > 100 µM and the TGI [27] was > 100 µM. The TGI [28] was > 100 µM, the TGI [29] was > 100 µM and the TGI [30] was > 100 µM. For the same compound, the TGI [31] was > 100 µM, the TGI [32] was > 100 µM and the TGI [33] was > 100 µM. The TGI [34] was > 100 µM, the TGI [35] was > 100 µM and the TGI [36] was > 100 µM. For the same compound, the TGI [37] was > 100 µM, the TGI [38] was > 100 µM and the TGI [39] was > 100 µM. For the same compound, the TGI [40] was > 100 µM, the TGI [41] was 81 µM and the TGI [42] was > 100 µM. For the same compound, the TGI [43] was > 100 µM, the TGI [44] was > 100 µM and the TGI [45] was > 100 µM. For the same compound, the TGI [46] was 37.4 µM, the TGI [47] was > 100 µM and the TGI [48] was > 100 µM. The TGI [49] was > 100 µM, the TGI [50] was > 100 µM and the TGI [51] was 87.2 µM. The TGI [52] was > 100 µM, the TGI [53] was > 100 µM and the TGI [54] was > 100 µM. For the same compound, the TGI [55] was > 100 µM.
For CN1CCc2c(sc3ncn(Nc4ccc(F)cc4)c(=N)c23)C1, the TGI [1] was > 100 µM, the TGI [2] was > 100 µM and the TGI [3] was > 100 µM. For the same compound, the TGI [4] was > 100 µM, the TGI [5] was > 100 µM and the TGI [6] was > 100 µM. For the same compound, the TGI [7] was > 100 µM, the TGI [9] was > 100 µM and the TGI [10] was > 100 µM. The TGI [12] was > 100 µM, the TGI [13] was > 100 µM and the TGI [14] was > 100 µM. The TGI [15] was > 100 µM, the TGI [16] was > 100 µM and the TGI [17] was > 100 µM. For the same compound, the TGI [18] was > 100 µM, the TGI [19] was > 100 µM and the TGI [20] was > 100 µM. For the same compound, the TGI [21] was > 100 µM, the TGI [22] was > 100 µM and the TGI [23] was > 100 µM. For the same compound, the TGI [24] was > 100 µM, the TGI [25] was > 100 µM and the TGI [26] was > 100 µM. For the same compound, the TGI [27] was > 100 µM, the TGI [28] was > 100 µM and the TGI [29] was > 100 µM. For the same compound, the TGI [30] was > 100 µM, the TGI [31] was > 100 µM and the TGI [32] was > 100 µM. The TGI [33] was > 100 µM, the TGI [34] was > 100 µM and the TGI [35] was > 100 µM. For the same compound, the TGI [36] was > 100 µM, the TGI [37] was > 100 µM and the TGI [38] was > 100 µM. For the same compound, the TGI [39] was > 100 µM, the TGI [40] was > 100 µM and the TGI [41] was > 100 µM. For the same compound, the TGI [42] was > 100 µM, the TGI [56] was > 100 µM and the TGI [43] was > 100 µM. The TGI [44] was > 100 µM, the TGI [45] was > 100 µM and the TGI [46] was > 100 µM. The TGI [57] was > 100 µM, the TGI [47] was > 100 µM and the TGI [48] was > 100 µM. The TGI [58] was > 100 µM, the TGI [49] was > 100 µM and the TGI [50] was > 100 µM. For the same compound, the TGI [51] was > 100 µM, the TGI [52] was > 100 µM and the TGI [53] was > 100 µM. For the same compound, the TGI [54] was > 100 µM and the TGI [59] was > 100 µM.
